Experimental data reported in patent US20090281049A1, “New use of ginsenoside compound-k in manufacturing medicaments” (priority 2006, published 2009).

System: Collagen Type II (CII) induced arthritis in rats
Assay: Preventive effect on Collagen Type II (CII) induced arthritis in rats
Type: in vivo, Rat, SD strain
Method: Inflammation-induced agent: Collagen Type II was dissolved in 0.1 mol/L acetic acid to make final concentration be 2 mg/ml collagen solution, and held in 4° C. overnight. The Collagen Type II solution was added to cold Freund's Adjuvant Incomplete by drops (Collagen Type II: Freund's Adjuvant Incomplete=1:1) on the next day, emulsified completely (Type II Collagen solution: Freund's Adjuvant Incomplete=1:1), and the final concentration of Collagen Type II was 1 mg/ml. The Collagen Type II emulsion was reserved in a refrigerator at 4° C.
Immune method: Each rat was immunized by being injected subcutaneously at 5 points on the back with 0.1 ml emulsion in each point, total of […] (contained 0.5 mg Collagen Type II), and immunized again in the same way 7 days later. An emulsion of 0.1 mol/L acetic acid and Freund's Adjuvant Incomplete was injected in control group. The swell values of the arthrosis in right hind ankle and foot were measured respectively by using a hydroplethismometer before injection and 20 days after immunization.
The Collagen Type II solution, which had been dissolved in acetic acid and held overnight, was adjusted to concentration 2 mg/ml, then added by drops slowly to Freund's Adjuvant Incomplete in proportion of 1:1. After the mixture was emulsified completely, each rat was injected subcutaneously at 5 points on the back with 0.1 ml emulsion in each point (total 0.5 ml in each rat, containing 0.5 mg Collagen Type II) for the first immunization. 7 days later, the second immunization was repeated in the same way.
The animals were divided into large dose group: Ginsenoside Compound-K, 10 mg/kg, iv, medium dose group: Ginsenoside Compound-K, 5 mg/kg, iv, small dose group: Ginsenoside Compound-K, 2.5 mg/kg, iv, Tripterygium Wilfordii Hook group: 1.5 mg/kg, po-, Enbrel group: 9 mg/kg, sc and blank control group: physiological saline 10 mg/kg, iv. The animals of administration groups were administered at the first immunization and stopped administering 8 days after the first immunization. The swell value of arthrosis in ankle and foot was measured by using hydroplethismometer before immunization and on day 20, 22, 24, 27 and 29 after the first immunization respectively. Swell rate and inhibition rate were calculated by the same method as the foregoing. Differences among groups were compared with t test. When the treatment finished, the arthroses in ankle and foot were taken for pathological examination.

## CC(C)=CCC[C@](C)(O[C@@H]1O[C@H](CO)[C@@H](O)[C@H](O)[C@H]1O)[C@H]1CC[C@]2(C)[C@@H]1[C@H](O)C[C@@H]1[C@@]3(C)CC[C@H](O)C(C)(C)[C@@H]3CC[C@]12C [Ginsenoside Compound-K, ginsenoside Compound-K]
2.5 mg/kg iv, 0 day
  swell value: 1.09 ± 0.04 mL
2.5 mg/kg iv, 20 day
  inhibition rate: <23.26> %
  swell rate: (40.29 ± 18.03) %
  swell value: 1.39 ± 0.24 mL
2.5 mg/kg iv, 22 day
  inhibition rate: <24.39> %
  swell rate: (38.98 ± 18.96) %
  swell value: 1.38 ± 0.24 mL
2.5 mg/kg iv, 24 day
  inhibition rate: <25.92> %
  swell rate: (38.92 ± 15.07) %
  swell value: 1.37 ± 0.24 mL
2.5 mg/kg iv, 27 day
  inhibition rate: <27.08> %
  swell rate: (36.93 ± 13.02) %
  swell value: 1.35 ± 0.22 mL
2.5 mg/kg iv, 29 day
  inhibition rate: <27.60> %
  swell rate: (31.75 ± 13.70) %
  swell value: 1.33 ± 0.17 mL
5 mg/kg iv, 0 day
  swell value: 1.11 ± 0.06 mL
5 mg/kg iv, 20 day
  inhibition rate: <29.01> %
  swell rate: (37.27 ± 15.30) %
  swell value: 1.43 ± 0.23 mL
5 mg/kg iv, 22 day
  inhibition rate: <32.11> %
  swell rate: (35.00 ± 15.12) %
  swell value: 1.41 ± 0.22 mL
5 mg/kg iv, 24 day
  inhibition rate: <31.56> %
  swell rate: (35.95 ± 11.21) %
  swell value: 1.45 ± 0.17 mL
5 mg/kg iv, 27 day
  inhibition rate: <31.57> %
  swell rate: (34.66 ± 13.01) %
  swell value: 1.41 ± 0.23 mL
5 mg/kg iv, 29 day
  inhibition rate: <29.04> %
  swell rate: (31.12 ± 13.81) %
  swell value: 1.39 ± 0.18 mL
10 mg/kg iv, 0 day
  swell value: 1.08 ± 0.07 mL
10 mg/kg iv, 20 day
  inhibition rate: <32.97> %
  swell rate: (35.19 ± 19.75) %
  swell value: 1.37 ± 0.26 mL
10 mg/kg iv, 22 day
  inhibition rate: <47.51> %
  swell rate: (27.06 ± 19.03) %
  swell value: 1.30 ± 0.23 mL
10 mg/kg iv, 24 day
  inhibition rate: <48.29> %
  swell rate: (27.16 ± 16.39) %
  swell value: 1.31 ± 0.21 mL
10 mg/kg iv, 27 day
  inhibition rate: <44.61> %
  swell rate: (28.05 ± 14.52) %
  swell value: 1.32 ± 0.19 mL
10 mg/kg iv, 29 day
  inhibition rate: <34.19> %
  swell rate: (28.86 ± 19.06) %
  swell value: 1.32 ± 0.23 mL
rats, 10, 5, 2.5 mg/kg iv
  overall preventive effect on Collagen Type II induced arthritis: able to prevent Collagen Type II induced arthritis
